Data set [1] has as its system dextran sulfate sodium-induced colitis. Also on record: method as in PMID 40602551. As to conditions: mice, oral 100 mg/kg; cited from earlier work.
Data set [2] can be described thus: Distribution coefficient (log D6.8), isotonic phosphate buffer (pH 6.8)/n-octanol. In kind it is physicochemical. Here is the method: Distribution coefficients (log D6.8) of PBN, PBN-GA, and PBN-AA were measured using an isotonic phosphate buffer (pH 6.8)/n-octanol system, as described previously.
For the next data set, the system named is Px-1. Further details: method as in PMID 18596212. As to conditions: cited from earlier work.
A short description of data set [3]: Chemical stability in HCl-NaCl buffer (pH 1.2) and isotonic phosphate buffer (pH 6.8). In kind it is physicochemical. Here is the method: The chemical stabilities of PBN-GA and PBN-AA were tested in HCl-NaCl buffer (pH 1.2) and isotonic phosphate buffer (pH 6.8). Changes in the concentrations of PBN-GA and PBN-AA were monitored by HPLC.
A short description of data set [4]: Incubation in small intestinal contents of rats. As to conditions: 10 h. In kind it is in vitro ADME, rat. Here is the method: Male Sprague-Dawley rats (250–260 g) were euthanized with CO2 prior to making a midline abdominal incision. The small intestinal contents were collected and suspended in isotonic phosphate buffer (pH 6.8) to prepare a 20% (w/v) suspension. PBN-GA (2 mM) was dissolved in 3 mL of isotonic phosphate buffer (pH 6.8), were mixed with 3 mL of the small intestinal suspension and incubated at 37 °C. A solution of PBN-AA was created with the same method. At designated time points, 0.5 mL of the reaction mixture was collected and centrifuged at 10,000× g at 4 °C for 10 min, and 0.1 mL of the supernatant was mixed with 0.9 mL of methanol. After vortexing and centrifugation under the same conditions, the final supernatant was filtered through a 0.45 μm membrane, and 20 μL of the filtrate was analyzed for PBN concentration by HPLC.

For the next data set, the system named is Caco-2 cell monolayer. The data set is described as follows: Cell permeability assay across Caco-2 cell monolayer. In kind it is in vitro ADME. As to conditions: 500 μM apical, up to 24 h, apical to basolateral. How it is done:
The cell permeabilities of PBN, PBN-GA, and PBN-AA were evaluated using a Caco-2 cell monolayer model. Caco-2 cells were seeded at a density of 4 × 10^5 cells per insert in Transwell 6-well plates with a pore size of 0.4 μm (SPL Life Sciences, Pocheon, Gyeonggi-do, Republic of Korea). The cells were cultured in Dulbecco’s modified eagle medium (DMEM) supplemented with 10% Fetal bovine serum (FBS) and 1% penicillin/streptomycin until the transepithelial electrical resistance (TEER) measured using an EMD Millipore system (Billerica, MA, USA) reached 2000 Ω·cm^2, indicating an intact monolayer.
For the transport study, the apical (donor) compartment was filled with 2 mL of DMEM without phenol red containing the test compounds (500 μM), and 3 mL of DMEM without phenol red was placed in the basolateral (acceptor) compartment. Samples were collected from the basolateral side at designated time intervals up to 24 h to determine the concentration of the permeated compounds using HPLC. Each experiment was performed in triplicate, and monolayer integrity was confirmed by maintaining TEER values above 2000 Ω·cm^2 before and after the assay.
On the technique in general: Passage across Caco-2 layers is used to estimate intestinal permeability.

A short description of data set [5]: PBN concentration in the cecum after oral gavage. In kind it is in vivo. As to conditions: rat. How it is done:
For cecal distribution studies, rats were orally administered PBN (30.0 mg/kg) or PBN-GA (43.6 mg/kg, equivalent to 30.0 mg/kg of PBN) in 1.0 mL PBS. At 2, 4, and 8 h post-dosing, the cecal contents were harvested and suspended in isotonic phosphate buffer (pH 6.8) to prepare 10% (w/v) homogenates. Quantitative analysis of PBN in the cecal suspensions was performed using HPLC, following the procedure described in Section 2.7.

The next data set has as its system DNBS-induced rat colitis. Nature of the data set: Anticolitis effects in DNBS-induced rat colitis. In kind it is in vivo. How it is done: Experimental colitis was induced in rats as previously described. Briefly, male Sprague–Dawley rats underwent to a 24 h fasting period with free access to water. Anesthesia was induced using 3% isoflurane and maintained at 2.5% in 1 L/min oxygen using a Small Animal O2 Single Flow Anesthesia System (LMS, Pyeongtaek, Republic of Korea). Once the animals no longer reacted to external tactile stimulation, a rubber cannula (2 mm outer diameter) was carefully inserted rectally, positioning the tip approximately 8 cm from the anus to target the splenic flexure. A solution of DNBS (48.0 mg) in 0.4 mL of 50% aqueous ethanol was then instilled into the colon via cannula to induce colitis.
Three days after the induction of colonic inflammation, the respective drugs were orally administered to the rats once daily for 6 consecutive days. The experimental scheme and treatment group assignments are shown in Supplementary Material S1. Colonic damage scores (CDS) were determined based on previously established scoring criteria. The scoring system is shown in Supplementary Material S2. Three independent observers blinded to the treatment groups conducted the CDS assessments. Myeloperoxidase (MPO) activity in the distal colon (4 cm) was determined as previously. One unit of MPO activity was defined as 1.0 μmol min^−1 of peroxide degradation at 25 °C.
Western blot analysis was performed on lysates derived from distal colon tissues following a previously established protocol. The detailed procedure is shown in Supplementary Material S3. Western blot images were quantified using Image Lab software (version 5.2 build 14; Bio-Rad, Hercules, CA, USA). Results are presented as the mean of the quantified values for each Western blot in the figures (n = 5).
The levels of inflammatory cytokine-induced neutrophil chemoattractant-3 (CINC-3) in the inflamed distal colon were determined using a CINC-3 enzyme-linked immunosorbent assay (ELISA) kit (R&D Systems, Minneapolis, MN, USA) as previously described.

The mark [6] stands for this setting: oral once daily for 6 days, PBN-GA 21.8 and 43.6 mg/kg.

The structures appear in SMILES notation. “Also recorded” adds a separate entry of the source.

With `N[C@@H](CCC(=O)O)C(=O)O` [GA, glutamic acid], the “effect on dextran sulfate sodium-induced colitis” value in data set [1] is “attenuates”.

Broadly, the logD is the decadic logarithm of the distribution of all forms, ionised or not, between an organic phase and buffer at a given pH. A lower logD goes with a more hydrophilic compound. In turn, `CCCN(CCC)S(=O)(=O)c1ccc(C(=O)O)cc1` [PBN, Probenecid] displayed a logD in data set [2] of 0.3. In addition, the “concentration required for significant inhibition of Px-1” value in the data set on Px-1 was 1 mM.

For `CCCN(CCC)S(=O)(=O)c1ccc(C(=O)N[C@@H](CC(=O)O)C(=O)O)cc1` [PBN-AA, aspartic acid-conjugated PBN], the logD in data set [2] is -1.04. Also, the “change in concentration of the conjugate (stability)” value (“change in concentration” below) in data set [3] (buffer pH 1.2, 10 h) is given as “no significant change”; in data set [3] (buffer pH 6.8, 10 h), “no significant change”; in data set [4] it was “no significant change”. In addition, the “transport via the Caco-2 cell monolayer compared with PBN” value with Caco-2 cell monolayer is given as “lower transport”.

In the case of `CCCN(CCC)S(=O)(=O)c1ccc(C(=O)N[C@@H](CCC(=O)O)C(=O)O)cc1` [PBN-GA, glutamic acid-conjugated PBN], the logD in data set [2] is -1.22. Further, the “change in concentration” value in data set [3] (buffer pH 1.2, 10 h) is on record as “no significant change”. Further, the “change in concentration” value in data set [3] (buffer pH 6.8, 10 h) is reported as “no significant change”. In data set [4], the “change in concentration” value is reported as “no significant change”. For the same molecule, in the data set with Caco-2 cell monolayer, the “transport via the Caco-2 cell monolayer compared with PBN” value is on record as “lower transport”. Also, the “amount of PBN detected in the cecum compared with oral PBN” value in data set [5] (oral 43.6 mg/kg (equivalent to 30.0 mg/kg PBN), 2, 4 and 8 h) is given as “much greater amount of PBN”. In addition, the “amount of PBN in the large intestine relative to oral PBN” value in data set [5] (oral, all time points) was “ten-fold”. Besides, in the data set on DNBS-induced rat colitis (setting [6]), the “CINC-3 level in inflamed colon (ELISA)” value is on record as “dose-dependently diminished”; the “COX-2 level in inflamed colon (Western blot)” value is given as “dose-dependently diminished”; the “iNOS level in inflamed colon (Western blot)” value is listed as “dose-dependently diminished”; the “mucosal recovery (H&E staining of inflamed colon)” value is “more effective than PBN and SSZ”. The “myeloperoxidase (MPO) activity in inflamed distal colon” value with DNBS-induced rat colitis (setting [6]) is reported as “dose-dependently diminished”. In addition, the “colonic tissue damage (colonic damage score, CDS)” value in the data set with DNBS-induced rat colitis (oral once daily for 6 days, PBN-GA 21.8 and 43.6 mg/kg, PBN 30.0 mg/kg, SSZ 50.0 mg/kg) is given as “greater with PBN-GA than with PBN; also recorded: more effective than SSZ”. Further, in the data set on DNBS-induced rat colitis (regardless of the dose of PBN-GA), the “suppression of the inflammatory response compared with PBN and SSZ” value was “more effective in suppressing the inflammatory response than PBN and SSZ”.
